Experimental data: patent US11440903B2, “Salt form and crystal form of compound as FGFR4 inhibitor and preparation method thereof” (GUANGDONG ZHONGSHENG PHARMACEUTICAL CO., LTD, priority 2017, dated 2022)

Key:
[1] = Solid stability test of the crystal forms (influence factors and acceleration tests; appearance, XRPD, HPLC content and impurities); format: physicochemical; conditions: for photostability (stability under light radiation), conclusion in words / stability under acceleration conditions, conclusion in words / stability under high humidity conditions, conclusion in words / thermal stability (high temperature), conclusion in words: conclusion of influence factors and acceleration tests
Text: A sample of the crystal form A was placed on the bottom of a glass sample bottle, and spread to a thin layer. The sample stored under high temperature, high humidity, and acceleration conditions was placed in a bottle of which the mouth was packed with a pierced aluminum foil to ensure the sample to be sufficiently exposed to ambient air; the sample stored under light radiation conditions was placed at room temperature in a standing bottle of which the mouth was open, the sample was exposed to a light resource, and sampled for detection after being radiated by sufficient energy. Samples were taken and analyzed at various time points, and the test results were compared with the initial test results of 0 day, the inspection items included appearance, content and impurities, and the test results are shown in Table 9.
A sample of the crystal form B (10 mg) was placed on the bottom of a glass sample bottle, and spread to a thin layer. The sample stored under high temperature, high humidity, and acceleration conditions were placed in a bottle of which the mouth was packed with a pierced aluminum foil to ensure the sample to be sufficiently exposed to ambient air; the sample stored under light radiation conditions was placed at room temperature in a standing bottle of which the mouth was open, the sample was exposed to a light resource, and sampled for detection after being radiated by sufficient energy, the control sample stored in dark (open, the whole sample bottle was sealed with aluminum foil to keep the content in dark) and the sample stored under light radiation conditions were placed together to exclude environmental influence on the samples. Samples were taken and analyzed at various time points, and the test results were compared with the initial test results of 0 day, the inspection items included appearance, crystal form, content and impurities, the test results are shown in Table 10.
(§1) A sample of the crystal form C was taken and placed on the bottom of a glass sample bottle, and spread to a thin layer. The sample stored under high temperature, high humidity, and acceleration conditions was placed in a bottle of which the mouth was packed with a pierced aluminum foil to ensure the sample to be sufficiently exposed to ambient air; the sample stored under light radiation conditions was placed at room temperature in a standing bottle of which the mouth was open, the sample was exposed to a light resource, and sampled for detection after being radiated by sufficient energy. Samples were taken and analyzed at various time points, and the test results were compared with the initial test results of 0 day.
as §1, with “D” for “C”
A sample of the crystal form E (10 mg) was taken and placed on the bottom of a glass sample bottle, and spread to a thin layer. […]

[2] = Stability of the crystal form on stirring as suspension in solvent (40° C., 2 days); format: physicochemical
Description: 30 mg of the compound represented by formula (I) was weighed and added into a glass flask, 400 μL acetonitrile-water (1:1) was added to form a suspension. A sample of the suspension was placed on a magnetic stirrer (40° C.) for a dark stirring experiment. The sample of the suspension was centrifuged after stirring at 40° C. for 2 days, and then the residual sample was dried in a vacuum drying oven (30° C.) overnight to give a crystal form A of the compound represented by formula (I). The XRPD pattern of the crystal form A of the compound represented by formula (I) is shown in FIG. 1, the DSC pattern is shown in FIG. 2, and the TGA pattern is shown in FIG. 3.
30 mg of the compound represented by formula (I) was weighed and added into a glass flask, and 400 μL ethyl acetate was added to form a suspension. A sample of the suspension was placed on a magnetic stirrer (40° C.) for dark stirring experiment. The sample of the suspension was centrifuged after stirring at 40° C. for 2 days, and then the residual sample was dried in a vacuum drying oven (30° C.) overnight. The crystal form was detected by XRPD to give a crystal form A of the compound represented by formula (I).
30 mg of the compound represented by formula (I) was weighed and added into a glass flask, and 400 μL methanol was added to form a suspension. A sample of the suspension was placed on a magnetic stirrer (40° C.) for dark stirring experiment. The sample of the suspension was centrifuged after stirring at 40° C. for 2 days, and then the residual sample was dried in a vacuum drying oven (30° C.) overnight to give a crystal form B of the compound represented by formula (I). The XRPD pattern of the crystal form B of the compound represented by formula (I) is shown in FIG. 4, the DSC pattern is shown in FIG. 5, and the TGA pattern is shown in FIG. 6.
50 mg of the compound represented by formula (I) was weighed and added into a 1.5 mL liquid vial, and 200 μL methanol was added thereto, the obtained mixture was homogeneously mixed under ultrasound. The dissolved sample was quickly centrifuged, and the supernatant was placed in a centrifuge tube, the mouth of the tube was packed with a pierced aluminum foil, and then the tube was placed in a fume cupboard for volatilization; the sample of the suspension was placed on a magnetic stirring heater (40° C.) for stirring (in dark), and quickly centrifuged after 2 days. The resultant solid was collected and dried at 30° C. in a vacuum drying oven overnight to give the crystal form C of the compound represented by formula (I). The XRPD pattern of the crystal form C of the compound represented by formula (I) is shown in FIG. 7, the DSC pattern is shown in FIG. 8, and the TGA pattern is shown in FIG. 9.
50 mg of the compound represented by formula (I) was weighed and added into a 1.5 mL liquid vial, and 200 μL ethanol was added thereto, and the obtained mixture was homogeneously mixed under ultrasound. The dissolved sample was quickly centrifuged, the supernatant was placed into a centrifuge tube, and the mouth of the tube was packed with a pierced aluminum foil, and placed in a fume cupboard for volatilization; the sample of the suspension was placed on a magnetic stirring heater (40° C.) for stirring (in dark), and quickly centrifuged after 2 days. The solid obtained as above was collected and dried at 30° C. in a vacuum drying oven overnight to give a crystal form D of the compound represented by formula (I). The XRPD pattern of the crystal form D of the compound represented by formula (I) is shown in FIG. 10, the DSC pattern is shown in FIG. 11, and the TGA pattern is shown in FIG. 12.
35 mg of the compound represented by formula (II) was weighed and added into a 1.5 mL liquid vial, and 400 μL methanol was added thereto, and the obtained mixture was homogeneously mixed under ultrasound. […]

[3] = Acceleration test (40° C./relative humidity of 75%, open), 5 days
[4] = Acceleration test (40° C./relative humidity of 75%, open), 10 days
[5] = High humidity (room temperature/relative humidity of 92.5%, open), 5 days
[6] = High humidity (room temperature/relative humidity of 92.5%, open), 10 days
[7] = High temperature (60° C., open), 5 days
[8] = High temperature (60° C., open), 10 days
[9] = Light radiation (total illumination: 1.2 × 10^6 Lux·hr), 5 days
[10] = Light radiation (total illumination: 1.2 × 10^6 Lux·hr), 10 days

In the case of `C=CC(=O)N[C@H]1COC[C@H]1Nc1ncc(/C=C(\F)c2c(Cl)c(OC)cc(OC)c2Cl)cn1` [Crystal Form D], the Appearance ([1]; 0 day (initial)) is reported as “Off-white”, the “Content (%)” value ([1]; 0 day (initial)) is reported as 99.33% and the “Total Impurities (%)” value ([1]; 0 day (initial)) is reported as 0.90%. For the same compound, the Appearance [1, 3] was “Off-white”, the Appearance [1, 4] was “Off-white” and the “Content (%)” value [1, 4] was 99.38%. For the same compound, the “Total Impurities (%)” value [1, 4] was 0.96%, the Appearance [1, 5] was “Off-white” and the Appearance [1, 6] was “Off-white”. The “Content (%)” value [1, 6] was 99.36%, the “Total Impurities (%)” value [1, 6] was 0.89% and the Appearance [1, 7] was “Off-white”. The Appearance [1, 8] was “Off-white”, the “Content (%)” value [1, 8] was 99.32% and the “Total Impurities (%)” value [1, 8] was 0.94%. For the same compound, the Appearance [1, 9] was “Off-white”, the Appearance [1, 10] was “Off-white” and the “Content (%)” value [1, 10] was 99.41%. For the same compound, the “Total Impurities (%)” value [1, 10] was 0.86%, the “photostability (stability under light radiation), conclusion in words” value (“photostability” for short) [1] was “good” and the “stability under acceleration conditions, conclusion in words” value (“stability under acceleration conditions” for short) [1] was “good”. The “stability under high humidity conditions, conclusion in words” value (“stability under high humidity conditions” below) [1] was “good”, the “thermal stability (high temperature), conclusion in words” value (from here on “thermal stability (high temperature)”) [1] was “good” and the “stability in the ethanol solution” value ([2]; stirring in ethanol at 40° C. for 2 days) was “substantially high stability”.
With `C=CC(=O)N[C@H]1COC[C@H]1Nc1ncc(/C=C(\F)c2c(Cl)c(OC)cc(OC)c2Cl)cn1` [Crystal Form A] the Appearance ([1]; 0 day (initial)) was “Off-white”, the “Content (%)” value ([1]; 0 day (initial)) was 99.11% and the “Total Impurities (%)” value ([1]; 0 day (initial)) was 1.12%. The Appearance [1, 3] was “Off-white”, the Appearance [1, 4] was “Off-white” and the “Content (%)” value [1, 4] was 98.98%. For the same compound, the “Total Impurities (%)” value [1, 4] was 1.18%, the Appearance [1, 5] was “Off-white” and the Appearance [1, 6] was “Off-white”. The “Content (%)” value [1, 6] was 98.85%, the “Total Impurities (%)” value [1, 6] was 1.22% and the Appearance [1, 7] was “Off-white”. The Appearance [1, 8] was “Off-white”, the “Content (%)” value [1, 8] was 99.06% and the “Total Impurities (%)” value [1, 8] was 1.18%. The Appearance [1, 9] was “Off-white”, the Appearance [1, 10] was “Off-white” and the “Content (%)” value [1, 10] was 99.13%. The “Total Impurities (%)” value [1, 10] was 1.10%, the “photostability” value [1] was “relatively good” and the “stability under acceleration conditions” value [1] was “relatively good”. For the same compound, the “stability under high humidity conditions” value [1] was “slightly less stability”, the “thermal stability (high temperature)” value [1] was “relatively good” and the “stability in the acetonitrile-water solution” value ([2]; stirring in acetonitrile-water (1:1) at 40° C. for 2 days) was “substantially high stability”. For the same compound, the “stability in the ethyl acetate solution” value ([2]; stirring in ethyl acetate at 40° C. for 2 days) was “substantially high stability”.
For `C=CC(=O)N[C@H]1COC[C@H]1Nc1ncc(/C=C(\F)c2c(Cl)c(OC)cc(OC)c2Cl)cn1` [Crystal Form C], the Appearance ([1]; 0 day (initial)) was “Off-white”, the “Content (%)” value ([1]; 0 day (initial)) was 98.96% and the “Crystal Form (XRPD)” value ([1]; 0 day (initial)) was “form C”. The “Total Impurities (%)” value ([1]; 0 day (initial)) was 1.25%, the Appearance [1, 3] was “Off-white” and the Appearance [1, 4] was “Off-white”. For the same compound, the “Content (%)” value [1, 4] was 98.96%, the “Crystal Form (XRPD)” value [1, 4] was “form C” and the “Total Impurities (%)” value [1, 4] was 1.26%. The Appearance [1, 5] was “Off-white”, the Appearance [1, 6] was “Off-white” and the “Content (%)” value [1, 6] was 98.22%. For the same compound, the “Crystal Form (XRPD)” value [1, 6] was “form C”, the “Total Impurities (%)” value [1, 6] was 2.08% and the Appearance [1, 7] was “Off-white”. The Appearance [1, 8] was “Off-white”, the “Content (%)” value [1, 8] was 98.93% and the “Crystal Form (XRPD)” value [1, 8] was “form C”. For the same compound, the “Total Impurities (%)” value [1, 8] was 1.27%, the Appearance [1, 9] was “Off-white” and the Appearance [1, 10] was “Off-white”. For the same compound, the “Content (%)” value [1, 10] was 98.35%, the “Crystal Form (XRPD)” value [1, 10] was “form C” and the “Total Impurities (%)” value [1, 10] was 1.86%. The “stability under acceleration conditions” value [1] was “good”, the “thermal stability (high temperature)” value [1] was “good” and the “stability in the methanol solution” value ([2]; stirring in methanol at 40° C. for 2 days) was “substantially high stability”.
For `C=CC(=O)N[C@H]1COC[C@H]1Nc1ncc(/C=C(\F)c2c(Cl)c(OC)cc(OC)c2Cl)cn1.CS(=O)(=O)O` [Crystal Form F], the Appearance ([1]; 0 day (initial)) was “White”, the “Content (%)” value ([1]; 0 day (initial)) was 99.26% and the “Crystal Form (XRPD)” value ([1]; 0 day (initial)) was “form F”. For the same compound, the “Total Impurities (%)” value ([1]; 0 day (initial)) was 0.72%, the Appearance [1, 3] was “White” and the Appearance [1, 4] was “White”. For the same compound, the “Content (%)” value [1, 4] was 99.22%, the “Crystal Form (XRPD)” value [1, 4] was “form F” and the “Total Impurities (%)” value [1, 4] was 0.71%. The Appearance [1, 5] was “White”, the Appearance [1, 6] was “White” and the “Content (%)” value [1, 6] was 99.24%. For the same compound, the “Crystal Form (XRPD)” value [1, 6] was “form F”, the “Total Impurities (%)” value [1, 6] was 0.73% and the Appearance [1, 7] was “White”. For the same compound, the Appearance [1, 8] was “White”, the “Content (%)” value [1, 8] was 99.22% and the “Crystal Form (XRPD)” value [1, 8] was “form F”. The “Total Impurities (%)” value [1, 8] was 0.79%, the Appearance [1, 9] was “White” and the Appearance [1, 10] was “White”. For the same compound, the “Content (%)” value [1, 10] was 99.30%, the “Crystal Form (XRPD)” value [1, 10] was “form F” and the “Total Impurities (%)” value [1, 10] was 0.73%. The “photostability” value [1] was “good”, the “stability under acceleration conditions” value [1] was “good” and the “stability under high humidity conditions” value [1] was “good”. The “thermal stability (high temperature)” value [1] was “slight impurity generation” and the “stability in the ethanol-water solution” value ([2]; stirring in ethanol-water (1:1) at 40° C. for 2 days) was “substantially high stability”.
